Measurements: US20240376427A1, “COMPOSITIONS AND SYSTEMS COMPRISING THREE-DIMENSIONAL NERVE CELL CULTURES AND METHODS OF USING THE SAME” (THE ADMINISTRATORS OF THE TULANE EDUCATIONAL FUND, priority 2021, published 2024)

Experiments:
[1] = test system: DRG spheroid monocultures; type: cell-based, rat
[2] = test system: hPSC-derived nociceptor-dorsal spinal cord cocultures; experiment: Evoked response field potential recording in hPSC-derived nociceptor-dorsal spinal cord cocultures; type: cell-based, human
Protocol: Generation o±3D Spheroid Cultures. Cryogenically preserved human stem-cell derived spinal cord dorsal horn (SCDH) precursor cells were a kind gift from the Randolph Ashton. Cells were rapidly thawed and diluted 1:4 in Neurobasal Medium (Thermo-Fisher Scientific, Waltham, MA). Cells were centrifuged at 300 g for 4 minutes and the supernatant was removed. Cells were then resuspended in neuronal differentiation media comprised of Neurobasal Medium supplemented with 2% v/v B27 supplement (Thermo-Fisher), 1% v/v N2 supplement (Thermo-Fisher), 1% v/v GlutaMAX (Thermo-Fisher), 20 ng/mL human nerve growth factor, 10 ng/mL recombinant human/murine/rat brain derived neurotrophic factor, 10 ng/mL recombinant human glial cell derived neurotrophic factor, 10 ng/mL recombinant human NT-3 (all growth factors from PeproTech, Cranbury, NJ, USA), 1 uM dibutyrl-cAMP (Millipore-Sigma, St. Louis, MO, USA), 10 uM Y-27632 (Abcam, Waltham, MA, USA), 10 uM DAPT (Tocris, Minneapolis, MN, USA), and 1% v/v antibiotic/antimycotic solution (Thermo-Fisher). Cells were plated at 500,000 cells/cm^2 on culture well plates coated with Matrigel (Corning) diluted at 1:100 for six days in neuronal differentiation media changed every-other-day to force terminal neuron differentiation. Cryogenically preserved human stem cell-derived nociceptors were purchased from Anatomic, Inc (Minneapolis, MN, USA). Cells were rapidly thawed, diluted 1:4 in Neurobasal Medium, centrifuged at 300 g for 4 minutes, and the supernatant was removed. Nociceptors were then resuspended in human culture growth media (identical to neuronal differentiation media but lacking DAPT and Y-27632) plated at 80,000 cells/cm^2 in well plates coated with Matrigel diluted at 1:100, allowed to adhere overnight, and washed to remove any dead cell debris. Nociceptor and terminally differentiated SCDH cell cultures were lifted by incubation in Accutase at 37° C. for 15 minutes. The cell suspensions were collected, centrifuged at 300 g for 4 minutes, the supernatant was removed, and both cell types were resuspended in culture growth media. […]

[3] = test system: hPSC-derived nociceptor-SCDH cocultures; type: cell-based, human
DRG monocultures = experiment: CaMPARI-2 recorded calcium influx in DRG monocultures (capsaicin); type: cell-based, rat; details: 10 μM capsaicin for five minutes prior to photostimulation, vs vehicle (0.1% DMSO)
Protocol: (§1) AAV1-hSyn-NES-his-CaMPARI2-WPRE-SV40 was a gift from Eric Schreiter (Addgene viral prep #101060-AAV1; http://n2t.net/addgene:101060; […]; http://n2t.net/addgene:58880; RRID:Addgene_5880). Viral particles of both types were added during spheroid formation with a MOI of 200,000. Cultures were seeded and matured for three weeks. Baseline red fluorescence was imaged with both three and ten second exposures prior to photostimulation using a Nikon AZ100 fluorescent microscope (2× magnification plus 5× or 8× digital zoom). […] Post-photostimulation red fluorescence was again imaged with methods identical to baseline imaging. The integrated pixel intensity for a region of interest encompassing each spheroid of interest was quantified in Fiji (ImageJ) and post-photostimulation intensity was normalized to pre stimulation intensity to obtain a final value for fold change in integrated pixel intensity.
(§2) The optogenetic experiments were conducted with between-samples designs. The fold change in red fluorescence before and after photostimulation was compared between control cultures and groups of cultures that received different independent treatments. […]

[4] = test system: DRG(CHR2-GFP)-SCDH(CaMPARI-2) cocultures; experiment: Optogenetic DRG photostimulation-induced calcium influx in SCDH recorded by CaMPARI-2; type: cell-based, rat
Protocol: as §1, §2

For `NC1=N[C@H](O)[C@H]2[C@H]3O[C@]4(O)O[C@@H]([C@@H](O)[C@@]2(N1)[C@@H]4O)[C@]3(O)CO` [tetrodotoxin], the “electrically-evoked compound action potentials (CAPs)” value [1] was “completely blocked”.
With `CN1CC[C@]23c4c5ccc(O)c4O[C@H]2[C@@H](O)C=C[C@H]3[C@H]1C5.O=S(=O)(O)O` [morphine, Morphine sulfate] the “late, positive-going portion of the synaptically evoked waveform” value [2] was “prolongs”, the “fully spontaneous burst firing in SCDH spheroid” value [3] was “increases in frequency and amplitude” and the “semi-spontaneous burst firing in SCDH spheroid” value [3] was “increased in frequency”.
For `COc1cc(CNC(=O)CCCC/C=C/C(C)C)ccc1O` [capsaicin], the “calcium influx recorded by CaMPARI-2 (fold change in red fluorescence)” value (DRG monocultures) was “induced significant calcium influx”.
For `O=C(O)CN(CCN(CC(=O)O)CC(=O)O)CC(=O)O` [EDTA, ethylenediaminetetraacetic acid], the “electrically-evoked compound action potentials (CAPs)” value [1] was “insensitive”.
`N#Cc1cc2c(cc1[N+](=O)[O-])=NC(=O)C(=O)N=2.O.[Na].[Na]` [CNQX, 6-Cyano-7-nitroquinoxaline-2,3-dione disodium salt hydrate] was tested, and the “calcium influx in SCDH following optical excitation of DRG tissue” value [4] was “significantly reduced calcium influx”, the “electrically-evoked compound action potentials (CAPs)” value [1] was “insensitive” and the “amplitude of the later negative and positive-going portions of the synaptic waveform” value [2] was “reduced”. For the same molecule, the “synaptically evoked activity in dorsal spinal cord tissue following stimulation of afferent nociceptor spheroid” value [2] was “blocks a large portion”.
